Assay results published in ChEMBL document CHEMBL2448809, “UCSF DeRisi Lab MMV Box Apicoplast Screening”.

Test system: Plasmodium falciparum
Experiment: MMV: Compounds (1uM) were screened in a 72hr growth assay monitored by flow cytometry both in the presence and absence of supplemental isopentenyl pyrophosphate (IPP) 200uM. Compounds which fail to show anti-malarial activity when chemically rescued by IPP are therefore specific to the apicoplast. The values are expressed as the ratio of the corresponding activity with and without IPP, respectively.
Format: functional, W2

Cc1cccc(N2C(=O)C3C(C2=O)C2(c4ccccc4)C(=O)C3(c3ccccc3)C(c3ccc4c(c3)OCO4)=C2c2ccc3c(c2)OCO3)c1 (configuration not stated)
Ratio: 0.9857

CCCCNCC(O)(c1ccc(Cl)cc1)c1ccc(Cl)cc1
Ratio: 1.074

CCCCCCOC(=O)C1=C(C)NC(=O)NC1c1ccccc1F (configuration not stated)
Ratio: 0.6566

CC(=O)c1sc(NC(=O)Nc2ccc(C)cc2C)nc1C
Ratio: 0.843

COc1ccc(NC(=O)C2c3ccccc3C(=O)N(CC(C)C)C2c2cccs2)cc1 (configuration not stated)
Ratio: 1.197

CCCc1c(CC)c(=N)c2ccccc2n1C
Ratio: 1.043

Cc1cc(Nc2ccc3ccccc3c2)n2ncnc2n1
Ratio: 0.8919

CCN(CC)CCNc1ncnc2c1[nH]c1ccc(Cl)cc12
Ratio: 0.6923

CCOc1c(Cl)cc(CNC(C)C(O)c2ccccc2)cc1OC (configuration not stated)
Ratio: 1.031

CCOc1cc(Cl)c(C(C)NC(=O)c2ccccc2)cc1OCC (configuration not stated)
Ratio: 0.9848

O=C(Nc1ccc(F)c(Cl)c1)Nc1ccc(Cl)c(Cl)c1
Ratio: 1.268

O=C(Nc1ccc(N2CCCCC2)c(Cl)c1)c1ccc(Br)o1
Ratio: 0.8784

CCN(CC)CCNc1ccnc2cc(Cl)ccc12
Ratio: 0.8734

CN(C)CCCNCc1ccc(-c2ccc(F)c(Cl)c2)o1.Cl
Ratio: 0.75

Oc1ccc(-c2nc(-c3ccc4oc5ccc(-c6[nH]c(-c7ccc(O)cc7)nc6-c6ccccc6)cc5c4c3)c(-c3ccccc3)[nH]2)cc1
Ratio: 0.8182

COCCNC(=O)c1ccc(OC2CCN(Cc3ccc(F)c(F)c3)CC2)c(Cl)c1
Ratio: 1.063

CCOc1ccc(/C=C/c2nc(=O)c3ccccc3o2)cc1
Ratio: 0.7714

CC(=O)NCCc1nc2ccccc2n1Cc1ccc(C(C)C)cc1
Ratio: 1.018

CCN(CC)CCCNc1nc(-c2ccc(Cl)cc2)nc2ccccc12
Ratio: 1.055

COc1ccccc1N1CCN(C(CNS(=O)(=O)c2ccc(Cl)cc2)c2cccnc2)CC1 (configuration not stated)
Ratio: 0.8506

CN1C=C(c2ccc3ccccc3n2)C(c2c[nH]c3ccccc23)c2ccccc21 (configuration not stated)
Ratio: 1.295

Nc1ccc(-c2nc3cc(Cc4ccc5[nH]c(-c6ccc(N)cc6)nc5c4)ccc3[nH]2)cc1
Ratio: 1.333

CC1(c2ccccc2)Nc2ccccc2-c2nc3ccccc3n21 (configuration not stated)
Ratio: 1.062

Clc1ccc2c(N3CCCC3)ccnc2c1
Ratio: 0.8475

CCOc1ccc(C2N(C)c3ccccc3N2C)cc1
Ratio: 0.8372

COc1ccccc1NC1=C(N2CCCCC2)C(=O)c2ccccc2C1=O
Ratio: 0.9344

CCOC(=O)c1c(C)n(-c2ccccc2)c2ccc(OC(=O)c3cc(OC)c(OC)c(OC)c3)cc12
Ratio: 0.9

COc1cc(OC)c(N(C)C(=O)c2cc3c(s2)-c2ccccc2S(=O)(=O)C3)cc1Cl
Ratio: 1

CC(C)(C)CC(C)(C)NCC(O)COc1ccc(Cl)cc1Cl (configuration not stated)
Ratio: 0.8983

Brc1ccc(Nc2nc3ccccc3nc2Nc2ccc(Br)cc2)cc1
Ratio: 0.8871

Cc1cc(Nc2ccc(OCc3ccccc3)cc2)nc2cc(O)ccc12
Ratio: 0.8026

Cc1ccc(C2CC(C(F)(F)F)n3nc(C(=O)N4CCN(C(c5ccccc5)c5ccccc5)CC4)cc3N2)cc1 (configuration not stated)
Ratio: 0.725

Nc1nc(Nc2cccc(F)c2)nc2ccccc12
Ratio: 1.176

Cc1ccc(Cl)cc1N1CCN(CCCNC(=O)C2CCN(c3nc4ccccc4[nH]3)CC2)CC1
Ratio: 0.814

O=C(Nc1nc(-c2ccccn2)cs1)c1ccccc1Br
Ratio: 0.987

CC(C)(C)c1ccc(C(=O)Nc2c3c(nn2-c2cccc(Cl)c2)CSC3)cc1
Ratio: 0.9138

CC(C)(C)CC(C)(C)NCC(O)COc1ccc2c(c1)CCC2.Cl (configuration not stated)
Ratio: 1.052

O=C1c2ccccc2C2=Nc3ccccc3SC(c3cccc(F)c3)C12 (configuration not stated)
Ratio: 0.8676

COc1ccc(CCNC(=O)c2cc(S(=O)(=O)N3CC(C)CC(C)C3)ccc2Sc2ccc(F)cc2)cc1OC (configuration not stated)
Ratio: 1.061

CCOC(=O)C1=C(C)N=c2sc(=Cc3ccccc3O)c(=O)n2C1c1ccc(OC)c2ccccc12 (configuration not stated)
Ratio: 1.667

COCCn1c(C)nc2ccccc2c1=O
Ratio: 0.9589

CCOc1cc2c(cc1OCC)C(c1cc(Cl)ccc1O)NCC2 (configuration not stated)
Ratio: 1.123

Cn1c(C(=O)c2cccc3ccccc23)nc2ccccc21
Ratio: 0.8689

O=c1c2c([nH]c3ccccc13)CCCC2
Ratio: 0.8986

O=C1c2ccc3c4c(ccc(c24)C(=O)N1CCCCO)C(=O)N(CCCCO)C3=O
Ratio: 1.047

Cl.Oc1ccccc1CNCC12CC3CC(CC(C3)C1)C2
Ratio: 0.8

FC(F)(F)c1cccc(Nc2nc3ccccc3nc2Nc2cccc(C(F)(F)F)c2)c1
Ratio: 1.08

CCOC(=O)c1c(NC(=O)c2ccccc2)sc2c(O)c(CN(CC)CC)ccc12
Ratio: 0.8592

CCOc1ccc2nc(C)cc(Nc3ccc(N(C)C)cc3)c2c1.Cl
Ratio: 1.135

CCOC(=O)c1cnc2ccc(OC)cc2c1Nc1ccc(N2CCN(C)CC2)cc1
Ratio: 0.9667

COc1ccc2c(=O)cc(C(Cl)(Cl)Cl)oc2c1
Ratio: 0.7571

COc1ccc(-c2cn3c(C(=O)Nc4ccccc4Cl)c(-c4ccccc4)c4c3n2CCCC4)cc1
Ratio: 1.057

C=CC12CCN(CC1)C(C(O)c1ccnc3ccc(OC)cc13)C2.Cl (configuration not stated)
Ratio: 0.6933

Cc1cc(NCCN2CCCCC2)c2ccc3ccccc3c2n1
Ratio: 0.8873

O=C(NC1CCCC1)c1ccc(N2CCC(NCc3cccc(C(F)(F)F)c3)CC2)cc1
Ratio: 0.8

Cc1[nH]c(-c2ccc(F)cc2)cc1C(=O)NC1CCN(Cc2ccccc2)CC1
Ratio: 0.8906

Oc1c(C(Nc2ccccn2)c2cccc(Oc3ccccc3)c2)ccc2cccnc12 (configuration not stated)
Ratio: 0.7317

COc1ccc(/C=C2/SC(=Nc3ccccc3)NC2=O)cc1
Ratio: 1.136

Oc1ccc(Br)cc1CN1CCN(Cc2ccc(Cl)cc2)CC1
Ratio: 0.9138

O=C(Nc1ccc(-c2nc3cc4ccccc4cc3[nH]2)cc1)c1cccc(Br)c1
Ratio: 1.254

CCN1CCN(Cc2ccc(NC(=O)c3cc4ccc5cccnc5c4[nH]3)cc2)CC1
Ratio: 1.563

CCC(c1ccccc1)c1nn2c(-c3cccs3)nnc2s1 (configuration not stated)
Ratio: 0.775

CC1CCN(Cc2ccc(NC(=O)c3cc4ccc5cccnc5c4[nH]3)cc2)CC1
Ratio: 1

CCOc1ccc(Nc2ccnc3cc(Cl)ccc23)cc1
Ratio: 0.8831

COc1ccc(C(=O)Nc2nonc2-c2ccc(OC)c(OC)c2)cc1Cl
Ratio: 0.8261

Cc1cc(C)c2nc(N3CCC(C(=O)NCCCN4CCC(N5CCCCC5)CC4)CC3)sc2c1
Ratio: 0.8033

Cc1sc2ncnc(Sc3nc4ccccc4[nH]3)c2c1C
Ratio: 0.9273

CN1CCN(c2ncnc3c2[nH]c2ccc(Cl)cc23)CC1
Ratio: 0.9492

O=c1nc(C=Cc2ccc(Br)cc2)oc2ccccc12
Ratio: 1.133

COc1cc2c(cc1OC)C1=NNC(=O)C1=NC(C)(C)C2
Ratio: 1.994

CCOC(=O)c1cnc2ccc(Cl)cc2c1NCCCN(C)C
Ratio: 1.179

COc1ccc(C=C2SC(=N)N(c3ccccc3OC)C2=O)cc1
Ratio: 0.8861

O=C(NCCCN1CCC(N2CCCCC2)CC1)C1=Cc2cc(Br)ccc2OC1
Ratio: 0.8966

Cn1c(=O)c2cc(C(=O)NCCCN3CCCCCC3)sc2c2ccccc21
Ratio: 1.205

CCCN(CCC)CC(O)COc1ccccc1C(=O)Nc1ccccc1 (configuration not stated)
Ratio: 0.8553

Cc1ccc(-c2cc3nc4c(c(O)n3n2)CCCC4)cc1
Ratio: 0.9459

FC(F)(F)c1cccc(CNC2CCN(CCc3ccccc3)CC2)c1
Ratio: 0.9344

N#Cc1nc(Cc2cccc3ccccc23)oc1N1CCN(C(c2ccccc2)c2ccccc2)CC1
Ratio: 1.062

CCCn1c(=N)c(C(=O)NC2CCCCC2)cc2c(=O)n3cccc(C)c3nc21
Ratio: 0.8

CCN1CCN(c2cc(C)c3cc(NC(=O)c4ccc(OC)c(OC)c4)ccc3n2)CC1
Ratio: 0.8308

CC1CC2=C(CC1CNCCCN(C)C)C(C)(C)CCC2 (configuration not stated)
Ratio: 0.931

Cc1cc(=O)oc2c1ccc1oc(C(=O)c3ccccc3)c(C)c12
Ratio: 1.067

O=C(Nc1ccsc1C(=O)NC1CCCCC1)c1ccc(F)cc1
Ratio: 0.9369

COc1ccc(C=C2SC(Nc3ccc(F)cc3)=NC2=O)c(OC)c1
Ratio: 0.9324

CCc1ccc(Nc2cc(C)c3ccc(O)cc3n2)cc1.Cl
Ratio: 0.7867

Cc1ccc2nc(C)cc(Nc3cccc(C(F)(F)F)c3)c2c1.Cl
Ratio: 0.875

CCOc1ccc2nc(C)cc(Nc3ccc(Br)cc3)c2c1
Ratio: 1.038

CC(C)(C)c1ccc(C(=O)Nc2nc3ccccc3s2)cc1
Ratio: 0.8302

COc1cccc(Nc2nc(NCCO)c3ccccc3n2)c1.Cl
Ratio: 0.7297

COc1cccc(C2(C)Nc3ccccc3-c3nc4ccccc4n32)c1 (configuration not stated)
Ratio: 1.163

N=c1n(CCN2CCCCC2)c2ccccc2n1CC(=O)c1ccc(Cl)c(Cl)c1
Ratio: 1.14

OC1CCCCC1C1(NC(=S)Nc2ccccc2)CCCCC1 (configuration not stated)
Ratio: 0.9298

OC(CNC1CCCC1)Cn1c2ccccc2c2ccccc21 (configuration not stated)
Ratio: 1.151

COc1ccc(C2Sc3ccccc3N=C3C2=C(O)c2ccccc23)cc1 (configuration not stated)
Ratio: 1.228

O=C(Nc1cccc(C2=NCCN2)c1)Nc1cccc(C2=NCCN2)c1 [IMIDOCARB]
Ratio: 1

COc1ccc(NC(=O)C2c3ccccc3C(=O)N(CC(C)C)C2c2cccs2)cc1Cl (configuration not stated)
Ratio: 0.9242

Cc1ccc(S(=O)(=O)c2c(COC(=O)c3cccc(C)c3)c(-c3ccccc3)nn2C)cc1
Ratio: 0.9265

O=C(Nc1ccc(Cl)cc1)N1CCN(c2ccc3nncn3n2)CC1
Ratio: 0.8112

CCOC(=O)C1CCN(C(=O)CN2C(=O)c3ccccc3C2c2c[nH]c3ccccc23)CC1 (configuration not stated)
Ratio: 0.6812

CCOc1cc(CNC(C)C(O)c2ccccc2)cc(Cl)c1OCC (configuration not stated)
Ratio: 0.8833

Cc1ccc(C(=O)c2oc3ccc4c(C)cc(=O)oc4c3c2C)cc1
Ratio: 1.018

CCOc1ccccc1CNC(=O)C1c2ccccc2C(=O)N(CC(C)C)C1c1cccs1 (configuration not stated)
Ratio: 1.143

O=C(Nc1ccccc1O)c1ccc(Oc2cccc(C(=O)Nc3ccccc3O)c2)cc1
Ratio: 0.75

Clc1ccc2[nH]c3c(NCCCN4CCOCC4)ncnc3c2c1
Ratio: 0.9836

Cc1cc(N2CCCC2)nc(Nc2ccc(NC(=O)CCc3ccccc3)cc2)n1
Ratio: 0.9077

CC(C)c1ccc(CNCC(O)c2ccccc2)cc1.Cl (configuration not stated)
Ratio: 0.9296

Cc1cccc(-n2ncc3c(O)nc(-n4nc(C)cc4NC(=O)c4cc5ccccc5o4)nc32)c1
Ratio: 0.6055
